Consider four compounds from ChEMBL document CHEMBL1140428, “Human P2Y(6) receptor: molecular modeling leads to the rational design of a novel agonist based on a unique conformational preference” (J Med Chem, 2005).

In the assay the target is P2Y purinoceptor 6 (Homo sapiens, UniProt Q15077). In words: Stimulation of phospholipase C in 1321N1 astrocytoma cells transfected with human P2Y6 receptor. It counts as cell-based.
Sequence of P2Y purinoceptor 6 (Q15077 whole entry): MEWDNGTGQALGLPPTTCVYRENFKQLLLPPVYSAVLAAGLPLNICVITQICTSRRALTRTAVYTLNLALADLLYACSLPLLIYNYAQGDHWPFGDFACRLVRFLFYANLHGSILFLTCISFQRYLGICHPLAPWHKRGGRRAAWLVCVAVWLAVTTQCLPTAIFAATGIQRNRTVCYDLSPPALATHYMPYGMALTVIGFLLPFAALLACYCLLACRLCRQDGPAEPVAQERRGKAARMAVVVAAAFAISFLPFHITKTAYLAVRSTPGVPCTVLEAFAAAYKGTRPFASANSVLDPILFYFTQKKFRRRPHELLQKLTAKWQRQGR

In the case of `O=c1ccn([C@@]23C[C@H](O)[C@@H](COP(=O)(O)OP(=O)(O)O)[C@@H]2C3)c(=O)[nH]1`, where the note is “read-out: EC50”, the EC50 (in general, the concentration giving half of the maximal effect) came out at 230 nM. Take `O=c1ccn([C@H]2[C@H](O)[C@H](O)[C@@]3(COP(=O)(O)OP(=O)(O)O)C[C@H]23)c(=O)[nH]1`: the EC50 entry is “Not Active”.

In the case of `O=c1ccn([C@H]2C[C@H](O)[C@@H](COP(=O)(O)OP(=O)(O)O)O2)c(=O)[nH]1`, the EC50 (read-out: EC50) came out at 1720 nM. On the same count and under the same terms, as for `O=c1ccn([C@@H]2O[C@H](COP(=O)(O)OP(=O)(O)O)[C@@H](O)[C@H]2O)c(=O)[nH]1` [URIDINE_DIPHOSPHATE], the figure is 86 nM.
